# According to patent US6623728B2, “Cosmetic skin care compositions and containing gum mastic” (Unilever Home & Personal Care USA Division of Conopco, Inc., priority 2000, dated 2003):
# Legend:
# [1] = system: procollagen I; test: Procollagen I production by fibroblasts (slot blot); assay type: cell-based, human; conditions: positive control, head says (0.01%)
# Experimental: This example measured production of procollagen I by fibroblasts in response to treatment with gum mastic in solvent solutions, as well as control solutions.
# Gum mastic solubilized in ethanol solvent (“gum mastic”), and obtained from Sigma were tested.
# Neonatal human dermal fibroblasts were purchased from Clonetics Corp., San Diego, Calif. All materials for cell culture were purchased from Life Technologies, NY and used in passages 5-10. Cells were seeded at a density of approximately 7,500/well in the inner 48 wells of a 96-well plate in a medium containing DMEM (Dulbecco's Modified Eagle's Medium), high-glucose supplemented with 2 mM L-glutamine, 10% fetal bovine serum, and antibiotic and antimycotic solutions). Cells were then grown to confluence for 2 days. At confluence, the medium was removed and cells were washed with serum-free DMEM, and each well dosed with 200 μl of a solution of gum mastic in serum-free DMEM. Each dosing was replicated in the total of six wells. […]
# The membrane was stained until color developed and the reaction stopped with 2 washes for 10 minutes in tap water. […] Blot was scanned on Bio-Rad GS-700 Image Analysis densitometer and volume (OD*mm^2) of color/slot determined using molecular analysis software. Fold increase was calculated as a ratio of densitometer reading for cells treated with a gum mastic concentration over control.
# [2] = system: glycosaminoglycan synthesis; test: Glycosaminoglycan synthesis; assay type: cell-based; conditions: positive control, concentration not given
# [3] = system: human sebocytes; test: Inhibition of sebocyte lipogenesis (14C-acetate incorporation); assay type: cell-based; conditions: 0.00035%; 14C-acetate label in sebocytes, 20 h + 4 h incubation
# Experimental: Secondary cultures of human sebocytes obtained from an adult […] were grown in 48-well tissue culture plates (Costar Corp.; Cambridge, Mass.) until confluent. Sebocyte growth medium consisted of Clonetics Keratinocyte Basal Medium (KBM) supplemented with 14 μg/ml bovine pituitary extract, 0.4 μg/ml hydrocortisone, 5 μg/ml insulin, 10 ng/ml epidermal growth factor, 1.2×10^−10 M cholera toxin, 100 units/ml penicillin, and 100 μg/ml streptomycin. All cultures were incubated at 37° C. in the presence of 7.5% CO2. Medium was changed three times per week.
# On the day of experimentation, the growth medium was removed and the sebocytes washed three times with sterile Dulbecco's Modified Eagle Medium (DMEM; phenol red free). Fresh DMEM was added to each sample (triplicates) with 5 μL of gum mastic solubilized in ethanol. Controls consisted of addition of ethanol alone to phenol red. Each plate was returned to the incubator for 20 hours followed by the addition of ^14C-acetate buffer (5 mM final concentration, 56 mCi/mmol specific activity). […] Radioactive label remaining in the sebocytes was harvested and counted using a Beckman scintillation counter. […]
# Controls consisted of ethanol alone and phenol red, which has estrogen-like activity. Statistical significance was calculated using the student's T-test.
Compound,Fold increase over control [1] [fold],"Average OD Reading ([1]; densitometer volume OD*mm^2, control 5400.5)",Fold increase over control [2] [fold],Average OD Reading ([2]; control 4531.8),% Reduction [3] [%]
TGF-b,1.4,7499.8,1.4,6382.3,
O=S1(=O)OC(c2ccc(O)cc2)(c2ccc(O)cc2)c2ccccc21 [Phenol Red],,,,,29.1
